From PubChem BioAssay (NCI)
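Cultured in 96-well plates, cells were exposed to test compound for 48 hours across five concentrations. At the GI50, growth is halved. The concentration for full growth arrest is given as TGI.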

Experiments:
Assay in all cases: inhibition of tumour cell growth, NCI panel, 48 h; in the data active means GI50 below about 0.43 µM; inactive means the rest
786-0 renal = system: 786-0 renal
A498 renal = system: A498 renal
A549 NSCLC = system: A549 NSCLC
ACHN renal = system: ACHN renal
BT-549 breast = system: BT-549 breast
CCRF-CEM leukemia = system: CCRF-CEM leukemia
COLO 205 colon = system: COLO 205 colon
DU-145 prostate = system: DU-145 prostate
EKVX NSCLC = system: EKVX NSCLC
HCC-2998 colon = system: HCC-2998 colon
HCT-116 colon = system: HCT-116 colon
HCT-15 colon = system: HCT-15 colon
HL-60(TB) leukemia = system: HL-60(TB) leukemia
HOP-62 NSCLC = system: HOP-62 NSCLC
HOP-92 NSCLC = system: HOP-92 NSCLC
HS 578T breast = system: HS 578T breast
HT29 colon = system: HT29 colon
IGROV1 ovarian = system: IGROV1 ovarian
K-562 leukemia = system: K-562 leukemia
KM12 colon = system: KM12 colon
LOX IMVI melanoma = system: LOX IMVI melanoma
M14 melanoma = system: M14 melanoma
MALME-3M melanoma = system: MALME-3M melanoma
MCF7 breast = system: MCF7 breast
MDA-MB-231 breast = system: MDA-MB-231 breast
MDA-MB-435 = system: MDA-MB-435
MDA-MB-468 breast = system: MDA-MB-468 breast
MOLT-4 leukemia = system: MOLT-4 leukemia
NCI-H226 lung = system: NCI-H226 lung
NCI-H23 lung = system: NCI-H23 lung
NCI-H460 lung = system: NCI-H460 lung
NCI-H522 lung = system: NCI-H522 lung
NCI/ADR-RES ovarian = system: NCI/ADR-RES ovarian
OVCAR-3 ovarian = system: OVCAR-3 ovarian
OVCAR-4 ovarian = system: OVCAR-4 ovarian
OVCAR-5 ovarian = system: OVCAR-5 ovarian
OVCAR-8 ovarian = system: OVCAR-8 ovarian
PC-3 prostate = system: PC-3 prostate
RPMI-8226 leukemia = system: RPMI-8226 leukemia
RXF 393 renal = system: RXF 393 renal
SF-268 CNS = system: SF-268 CNS
SF-295 CNS = system: SF-295 CNS
SF-539 CNS = system: SF-539 CNS
SK-MEL-2 melanoma = system: SK-MEL-2 melanoma
SK-MEL-28 melanoma = system: SK-MEL-28 melanoma
SK-MEL-5 melanoma = system: SK-MEL-5 melanoma
SK-OV-3 ovarian = system: SK-OV-3 ovarian
SN12C renal = system: SN12C renal
SNB-19 CNS = system: SNB-19 CNS
SNB-75 CNS = system: SNB-75 CNS
SR leukemia = system: SR leukemia
SW-620 colon = system: SW-620 colon
T-47D breast = system: T-47D breast
TK-10 renal = system: TK-10 renal
U251 CNS = system: U251 CNS
UACC-257 melanoma = system: UACC-257 melanoma
UACC-62 melanoma = system: UACC-62 melanoma
UO-31 renal = system: UO-31 renal

Cc1cc(C(NC(=O)C2CC3(CC(Nc4cccc5c4C(=O)N(C4CCC(=O)NC4=O)C5=O)C3)C2)c2ccc3c(c2)OC(F)(F)O3)c(O)c2ncccc12 (stereo not drawn)
active: GI50 (A549 NSCLC) 418 nM | GI50 (ACHN renal) 359 nM | GI50 (BT-549 breast) 224 nM | GI50 (CCRF-CEM leukemia) 390 nM | GI50 (EKVX NSCLC) 349 nM | GI50 (HCC-2998 colon) 340 nM | GI50 (HCT-116 colon) 420 nM | GI50 (HCT-15 colon) 307 nM | GI50 (HL-60(TB) leukemia) 314 nM | GI50 (HOP-62 NSCLC) 392 nM | GI50 (HOP-92 NSCLC) 382 nM | GI50 (IGROV1 ovarian) 313 nM | GI50 (K-562 leukemia) 334 nM | GI50 (LOX IMVI melanoma) 272 nM | GI50 (M14 melanoma) 411 nM | GI50 (MCF7 breast) 303 nM | GI50 (MDA-MB-435) 426 nM | GI50 (MOLT-4 leukemia) 344 nM | GI50 (NCI-H23 lung) 352 nM | GI50 (NCI-H460 lung) 198 nM | GI50 (NCI-H522 lung) 399 nM | GI50 (OVCAR-3 ovarian) 376 nM | GI50 (OVCAR-8 ovarian) 364 nM | GI50 (PC-3 prostate) 275 nM | GI50 (RPMI-8226 leukemia) 350 nM | GI50 (SF-268 CNS) 420 nM | GI50 (SF-295 CNS) 275 nM | GI50 (SF-539 CNS) 378 nM | GI50 (SK-MEL-2 melanoma) 375 nM | GI50 (SK-MEL-28 melanoma) 405 nM | GI50 (SK-MEL-5 melanoma) 226 nM | GI50 (SK-OV-3 ovarian) 344 nM | GI50 (SN12C renal) 349 nM | GI50 (SNB-19 CNS) 350 nM | GI50 (SNB-75 CNS) 289 nM | GI50 (SR leukemia) 340 nM | GI50 (T-47D breast) 393 nM | GI50 (U251 CNS) 210 nM | GI50 (UACC-62 melanoma) 282 nM | GI50 (UO-31 renal) 295 nM
> 22300 nM: TGI (SK-OV-3 ovarian)
3130 nM: TGI (MDA-MB-468 breast)
3180 nM: TGI (SF-539 CNS)
> 32300 nM: TGI (IGROV1 ovarian)
> 23900 nM: TGI (NCI-H226 lung)
> 30700 nM: TGI (RXF 393 renal)
2290 nM: TGI (UO-31 renal)
2660 nM: TGI (M14 melanoma)
15300 nM: TGI (NCI/ADR-RES ovarian)
1140 nM: TGI (UACC-62 melanoma)
562 nM: TGI (SK-MEL-5 melanoma)
5540 nM: TGI (NCI-H23 lung)
> 40600 nM: TGI (EKVX NSCLC)
> 42700 nM: TGI (MDA-MB-231 breast)
> 100000 nM: TGI (786-0 renal) | TGI (A498 renal) | TGI (A549 NSCLC) | TGI (ACHN renal) | TGI (BT-549 breast) | TGI (CCRF-CEM leukemia) | TGI (COLO 205 colon) | TGI (DU-145 prostate) | TGI (HCT-116 colon) | TGI (HCT-15 colon) | TGI (HOP-62 NSCLC) | TGI (HOP-92 NSCLC) | TGI (HS 578T breast) | TGI (HT29 colon) | TGI (K-562 leukemia) | TGI (KM12 colon) | TGI (MCF7 breast) | TGI (MDA-MB-435) | TGI (MOLT-4 leukemia) | TGI (NCI-H460 lung) | TGI (NCI-H522 lung) | TGI (OVCAR-3 ovarian) | TGI (OVCAR-4 ovarian) | TGI (OVCAR-5 ovarian) | TGI (OVCAR-8 ovarian) | TGI (PC-3 prostate) | TGI (RPMI-8226 leukemia) | TGI (SF-268 CNS) | TGI (SF-295 CNS) | TGI (SK-MEL-2 melanoma) | TGI (SK-MEL-28 melanoma) | TGI (SN12C renal) | TGI (SNB-19 CNS) | TGI (SNB-75 CNS) | TGI (SR leukemia) | TGI (SW-620 colon) | TGI (T-47D breast) | TGI (TK-10 renal) | TGI (U251 CNS) | TGI (UACC-257 melanoma)
inactive: GI50 (786-0 renal) 452 nM | GI50 (A498 renal) > 100000 nM | GI50 (COLO 205 colon) 437 nM | GI50 (DU-145 prostate) 461 nM | GI50 (HS 578T breast) 433 nM | GI50 (HT29 colon) 474 nM | GI50 (KM12 colon) 468 nM | GI50 (MALME-3M melanoma) 522 nM | GI50 (MDA-MB-231 breast) 440 nM | GI50 (MDA-MB-468 breast) 473 nM | GI50 (NCI-H226 lung) 434 nM | GI50 (NCI/ADR-RES ovarian) 1600 nM | GI50 (OVCAR-4 ovarian) 476 nM | GI50 (OVCAR-5 ovarian) 447 nM | GI50 (RXF 393 renal) 502 nM | GI50 (SW-620 colon) 531 nM | GI50 (TK-10 renal) 474 nM | GI50 (UACC-257 melanoma) 718 nM
> 25400 nM: TGI (MALME-3M melanoma)
